Here are results for eight compounds from ChEMBL document CHEMBL3046774, “Synthesis and insect antifeedant activity of precocene derivatives with lactone moiety” (2005).

For test [1], the system named is Sitophilus granarius. Kind of test: Antifeeding activity against Sitophilus granarius (granary weevil) adults in compound treated wheat wafer disk assessed as absolute coefficient of deterrence by feeding deterrent activity test. Type of test: functional.
Test [2] concerns Tribolium confusum. The test is described as follows: Antifeeding activity against Tribolium confusum (confused flour beetle) adults in compound treated wheat wafer disk assessed as absolute coefficient of deterrence by feeding deterrent activity test. In kind it is functional.
For test [3], the system named is Leptinotarsa decemlineata. The test is described as follows: Antifeeding activity against Leptinotarsa decemlineata larvaes in compound treated wheat wafer disk assessed as relative coefficient of deterrence by feeding deterrent activity test. In kind it is functional.
In test [4] the test system is Tribolium confusum. The test is described as follows: Antifeeding activity against Tribolium confusum (confused flour beetle) adults in compound treated wheat wafer disk assessed as total coefficient of deterrence by feeding deterrent activity test. In kind it is functional.
Test [5] deals with Tribolium confusum. Kind of test: Antifeeding activity against Tribolium confusum (confused flour beetle) larvaes in compound treated wheat wafer disk assessed as relative coefficient of deterrence by feeding deterrent activity test. Type of test: functional.
Test [6] concerns Leptinotarsa decemlineata. The test is described as follows: Antifeeding activity against Leptinotarsa decemlineata adults in compound treated wheat wafer disk assessed as relative coefficient of deterrence by feeding deterrent activity test. Type of test: functional.
The test system of test [7] is Sitophilus granarius. Kind of test: Antifeeding activity against Sitophilus granarius (granary weevil) adults in compound treated wheat wafer disk assessed as relative coefficient of deterrence by feeding deterrent activity test. Type of test: functional.
The test system of test [8] is Leptinotarsa decemlineata. The test is described as follows: Antifeeding activity against Leptinotarsa decemlineata larvaes in compound treated wheat wafer disk assessed as total coefficient of deterrence by feeding deterrent activity test. Type of test: functional.
In test [9] the test system is Tribolium confusum. The test is described as follows: Antifeeding activity against Tribolium confusum (confused flour beetle) larvaes in compound treated wheat wafer disk assessed as absolute coefficient of deterrence by feeding deterrent activity test. In kind it is functional.
The subject of the next test is Aphididae. The test is described as follows: Antifeeding activity against Aphididae (aphids) in compound treated chinese cabbage leaves assessed as settled aphids measured up to 24 hr. In kind it is functional, organism-based.
The subject of test [10] is Trogoderma granarium. The test is described as follows: Antifeeding activity against Trogoderma granarium (khapra beetle) larvaes in compound treated wheat wafer disk assessed as relative coefficient of deterrence by feeding deterrent activity test. In kind it is functional.
In test [11] the test system is Trogoderma granarium. The test is described as follows: Antifeeding activity against Trogoderma granarium (khapra beetle) larvaes in compound treated wheat wafer disk assessed as total coefficient of deterrence by feeding deterrent activity test. In kind it is functional.
For test [12], the system named is Leptinotarsa decemlineata. Kind of test: Antifeeding activity against Leptinotarsa decemlineata adults in compound treated wheat wafer disk assessed as absolute coefficient of deterrence by feeding deterrent activity test. In kind it is functional.
Test [13] relates to Tribolium confusum. Kind of test: Antifeeding activity against Tribolium confusum (confused flour beetle) adults in compound treated wheat wafer disk assessed as relative coefficient of deterrence by feeding deterrent activity test. Type of test: functional.
Test [14] relates to Sitophilus granarius. Kind of test: Antifeeding activity against Sitophilus granarius (granary weevil) adults in compound treated wheat wafer disk assessed as total coefficient of deterrence by feeding deterrent activity test. Type of test: functional.
For test [15], the system named is Trogoderma granarium. Kind of test: Antifeeding activity against Trogoderma granarium (khapra beetle ) larvaes in compound treated wheat wafer disk assessed as absolute coefficient of deterrence by feeding deterrent activity test. Type of test: functional.
For test [16], the system named is Leptinotarsa decemlineata. The test is described as follows: Antifeeding activity against Leptinotarsa decemlineata larvaes in compound treated wheat wafer disk assessed as absolute coefficient of deterrence by feeding deterrent activity test. Type of test: functional.
For test [17], the system named is Tribolium confusum. The test is described as follows: Antifeeding activity against Tribolium confusum (confused flour beetle) larvaes in compound treated wheat wafer disk assessed as total coefficient of deterrence by feeding deterrent activity test. In kind it is functional.
For test [18], the system named is Leptinotarsa decemlineata. Kind of test: Antifeeding activity against Leptinotarsa decemlineata adults in compound treated wheat wafer disk assessed as total coefficient of deterrence by feeding deterrent activity test. Type of test: functional.

Active and inactive are the calls of the source. The calls are words filed in the database; no cut-off is given here.

Take `COc1ccc2c(c1)OC(C)(C)C1=C2OC(=O)C1`: the FDI is 19.7 in the test on Sitophilus granarius [1]; 19.7 in the test on Tribolium confusum [2]; 55 in test [3]; 114.1 in the test with Tribolium confusum [4]; 60.3 with Tribolium confusum [5]; 49.2 in test [6]. In addition, the FDI is recorded as 94.4 with Sitophilus granarius [7]; 76.7 in test [8]; -6.7 in the test on Tribolium confusum [9]; 73.1 in the test with Trogoderma granarium [10]; 107.6 with Trogoderma granarium [11]; 27.6 in test [12]. Further, the FDI in the test on Tribolium confusum [13] is reported as 94.4; in the test on Sitophilus granarius [14], 114.1; in the test with Trogoderma granarium [15] it was 34.5; in [16], 21.7; in the test on Tribolium confusum [17], 50.6; in test [18], 76.8. In the test with Aphididae, the outcome was Active.

In the case of `COc1cc2c(cc1OC)C1=C(CC(=O)O1)C(C)(C)O2`, the FDI turned out to be 14.2 in the test on Sitophilus granarius [1]; 14.2 in the test with Tribolium confusum [2]; 62.5 in test [3]; 105.8 with Tribolium confusum [4]; 90.7 in the test on Tribolium confusum [5]; 29.9 in test [6]. The FDI is listed as 91.6 in the test on Sitophilus granarius [7]; 95.2 in test [8]; 59 with Tribolium confusum [9]; 85 with Trogoderma granarium [10]; 116.2 in the test with Trogoderma granarium [11]; 19.7 in test [12]. In addition, the FDI is recorded as 91.6 in the test with Tribolium confusum [13]; 105.8 in the test with Sitophilus granarius [14]; 31.2 in the test on Trogoderma granarium [15]; 32.7 in test [16]; 149.7 with Tribolium confusum [17]; 49.6 in test [18]. Also, the result with Aphididae was inactive.

As to `COc1ccc2c(c1)OC(C)(C)C(CC(=O)O)=C2`, the FDI in the test on Sitophilus granarius [1] was found to be 1.8; in the test on Tribolium confusum [2] it was 1.8; in [3], 63.6; in the test on Tribolium confusum [4] it was 97.5; in the test with Tribolium confusum [5] it was 86.4; in [6], 70.9. The FDI in the test on Sitophilus granarius [7] is 95.7; in [8], 98.8; in the test with Tribolium confusum [9], -6.2; in the test with Trogoderma granarium [10] it was 86; with Trogoderma granarium [11], 108; in [12], 23.2. For the same compound, the FDI with Tribolium confusum [13] is on record as 95.7; in the test with Sitophilus granarius [14], 97.5; with Trogoderma granarium [15], 22; in [16], 35.2; in the test on Tribolium confusum [17] it was 80.2; in test [18] it was 94.1. The outcome in the test on Aphididae was inactive.

In the case of `COc1cc2c(cc1OC)OC(C)(C)C(CC(=O)O)=C2`, the FDI in the test on Sitophilus granarius [1] is 15; with Tribolium confusum [2], 15; in test [3], 79.1; in the test with Tribolium confusum [4] it was 103.9; in the test with Tribolium confusum [5] it was 73.1; in test [6], 63.7. Further, the FDI turned out to be 88.9 with Sitophilus granarius [7]; 96.3 in test [8]; 40.5 in the test on Tribolium confusum [9]; 85.5 in the test on Trogoderma granarium [10]; 97.4 in the test with Trogoderma granarium [11]; 34.4 in test [12]. In addition, the FDI in the test with Tribolium confusum [13] came out at 88.9; with Sitophilus granarius [14], 103.9; in the test on Trogoderma granarium [15], 11.9; in [16], 17.2; with Tribolium confusum [17] it was 113.6; in test [18] it was 98.1. Moreover, in the test with Aphididae, the outcome was inactive.

Turning to `COc1cc2c(cc1OC)[C@@H]1OC(=O)C[C@]1(I)C(C)(C)O2` (racemic), the FDI stood at 3.9 in the test on Sitophilus granarius [1]; 3.9 with Tribolium confusum [2]; 90.6 in test [3]; 93.4 with Tribolium confusum [4]; 93.6 in the test with Tribolium confusum [5]; 89.1 in [6]. Moreover, the FDI came out at 89.5 in the test on Sitophilus granarius [7]; 132 in test [8]; 54.2 in the test on Tribolium confusum [9]; 80.5 in the test with Trogoderma granarium [10]; 120.1 in the test on Trogoderma granarium [11]; 87.1 in test [12]. Moreover, the FDI with Tribolium confusum [13] came out at 89.5; in the test with Sitophilus granarius [14], 93.4; with Trogoderma granarium [15] it was 39.6; in [16], 41.4; with Tribolium confusum [17], 147.8; in [18], 176.2. The outcome in the test on Aphididae was inactive.

With `COc1ccc2c(c1)OC(C)(C)[C@@]1(I)CC(=O)O[C@@H]21` (racemic), the FDI is 21.1 with Sitophilus granarius [1]; 21.1 in the test on Tribolium confusum [2]; 95.8 in test [3]; 114.5 with Tribolium confusum [4]; 77.5 in the test with Tribolium confusum [5]; 81.4 in [6]. The FDI is given as 93.4 in the test with Sitophilus granarius [7]; 134.1 in test [8]; 16.7 with Tribolium confusum [9]; 79.8 in the test with Trogoderma granarium [10]; 111.4 in the test on Trogoderma granarium [11]; 61.6 in test [12]. Also, the FDI with Tribolium confusum [13] is recorded as 93.4; in the test with Sitophilus granarius [14] it was 114.5; with Trogoderma granarium [15], 31.6; in test [16], 38.3; with Tribolium confusum [17] it was 94.2; in [18] it was 143. Besides, the result with Aphididae was inactive.

Consider `COc1cc2c(cc1OC)OC(C)(C)C=C2` [PROCOCENE II], for which the FDI in the test with Sitophilus granarius [1] is 100; with Tribolium confusum [2], 100; in test [3], 91.2; in the test with Tribolium confusum [4], 194.2; with Tribolium confusum [5] it was 97.1; in test [6], 71.8. Moreover, the FDI in the test with Sitophilus granarius [7] is on record as 94.2; in [8], 124.1; in the test with Tribolium confusum [9] it was 68.6; in the test with Trogoderma granarium [10] it was 100; with Trogoderma granarium [11], 198.6; in test [12], 44.2. The FDI in the test with Tribolium confusum [13] is reported as 94.2; in the test with Sitophilus granarius [14] it was 194.2; in the test with Trogoderma granarium [15] it was 98.6; in [16] it was 32.9; in the test on Tribolium confusum [17], 165.7; in test [18], 116. Moreover, the result in the test with Aphididae was Active.

For `COc1ccc2c(c1)OC(C)(C)C=C2` [PROCOCENE I], the FDI came to 55.2 with Sitophilus granarius [1]; 55.2 in the test with Tribolium confusum [2]; 86.8 in test [3]; 139 with Tribolium confusum [4]; 64.1 in the test on Tribolium confusum [5]; 73.8 in [6]. Also, the FDI with Sitophilus granarius [7] was determined as 83.8; in test [8], 164.6; in the test on Tribolium confusum [9], 55.1; with Trogoderma granarium [10], 38.3; with Trogoderma granarium [11] it was 80.1; in test [12] it was 41.9. Further, the FDI in the test with Tribolium confusum [13] was found to be 83.8; in the test on Sitophilus granarius [14], 139; in the test with Trogoderma granarium [15] it was 41.8; in test [16], 77.8; in the test on Tribolium confusum [17], 119.2; in [18] it was 115.7. In addition, the outcome with Aphididae was Active.
